Results as given in article PMC10041525, “New Dual Inhibitors of Bacterial Topoisomerases with Broad-Spectrum Antibacterial Activity and In Vivo Efficacy against Vancomycin-Intermediate Staphylococcus aureus” (Journal of Medicinal Chemistry, 2023).
Values after ≈ are worked out from the molar mass of the structure shown. Where two headings read alike, the source gives them in different places.

System: 100 A. baumannii strains (50 MDR, 50 non-MDR)
Assay: MIC broth microdilution at IHMA Europe, panel of 100 strains
Format: cell-based
Details: for MIC / MIC50 / MIC90: Acinetobacter baumannii; for MIC50: read-out: MIC 50; for MIC90: read-out: MIC 90

O=C(O)c1cn(C2CC2)c2cc(N3CCNCC3)c(F)cc2c1=O [ciprofloxacin] was tested, and the MIC (A. baumannii IHMA 1769393, Lithuania 2018, Non-MDR, read-out: MIC) was 0.5 µg/mL (≈ 1.51 µM), the MIC (A. baumannii IHMA 1769782, Israel 2018, MDR, read-out: MIC) was over 16 µg/mL and the MIC (A. baumannii IHMA 1769910, Israel 2018, Non-MDR, read-out: MIC) was 1 µg/mL (≈ 3.02 µM). It also gave an MIC (A. baumannii IHMA 1790317, Czech Republic 2018, Non-MDR, read-out: MIC) of at most 0.06 µg/mL, an MIC (A. baumannii IHMA 1790916, Romania 2018, Non-MDR, read-out: MIC) of at most 0.06 µg/mL and an MIC (A. baumannii IHMA 1791877, Israel 2018, MDR, read-out: MIC) of over 16 µg/mL. The MIC (A. baumannii IHMA 1792961, Jordan 2018, MDR, read-out: MIC) was over 16 µg/mL, the MIC (A. baumannii IHMA 1795669, Tunisia 2018, Non-MDR, read-out: MIC) was at most 0.06 µg/mL and the MIC (A. baumannii IHMA 1814276, Lebanon 2018, MDR, read-out: MIC) was over 16 µg/mL. For the same molecule, the MIC (A. baumannii IHMA 1815198, Kuwait 2018, MDR, read-out: MIC) was over 16 µg/mL, the MIC (A. baumannii IHMA 1815856, Israel 2018, MDR, read-out: MIC) was over 16 µg/mL and the MIC (A. baumannii IHMA 1830924, United Kingdom 2018, Non-MDR, read-out: MIC) was 0.5 µg/mL (≈ 1.51 µM). The MIC (A. baumannii IHMA 1849819, Kuwait 2018, MDR, read-out: MIC) was over 16 µg/mL, the MIC (A. baumannii IHMA 1849829, Kuwait 2018, Non-MDR, read-out: MIC) was at most 0.06 µg/mL and the MIC (A. baumannii IHMA 1926285, Qatar 2018, Non-MDR, read-out: MIC) was at most 0.06 µg/mL. The MIC (A. baumannii IHMA 1926288, Qatar 2018, MDR, read-out: MIC) was over 16 µg/mL, the MIC (A. baumannii IHMA 1963732, Turkey 2019, MDR, read-out: MIC) was over 16 µg/mL and the MIC (A. baumannii IHMA 1967860, Spain 2019, Non-MDR, read-out: MIC) was 1 µg/mL (≈ 3.02 µM). It also gave an MIC (A. baumannii IHMA 1971673, Latvia 2019, MDR, read-out: MIC) of over 16 µg/mL, an MIC (A. baumannii IHMA 1983151, Greece 2019, MDR, read-out: MIC) of over 16 µg/mL and an MIC (A. baumannii IHMA 1984665, Lithuania 2019, MDR, read-out: MIC) of over 16 µg/mL. For the same molecule, the MIC (A. baumannii IHMA 1986738, Turkey 2019, MDR, read-out: MIC) was over 16 µg/mL, the MIC (A. baumannii IHMA 1987162, Croatia 2019, MDR, read-out: MIC) was over 16 µg/mL and the MIC (A. baumannii IHMA 1993615, Turkey 2019, MDR, read-out: MIC) was over 16 µg/mL. For the same molecule, the MIC (A. baumannii IHMA 1994284, Italy 2019, MDR, read-out: MIC) was over 16 µg/mL, the MIC (A. baumannii IHMA 2003279, Turkey 2019, MDR, read-out: MIC) was over 16 µg/mL and the MIC (A. baumannii IHMA 2014931, South Africa 2019, Non-MDR, read-out: MIC) was 2 µg/mL (≈ 6.04 µM). For the same molecule, the MIC (A. baumannii IHMA 2020360, Croatia 2019, MDR, read-out: MIC) was over 16 µg/mL, the MIC (A. baumannii IHMA 2031511, Greece 2019, Non-MDR, read-out: MIC) was at most 0.06 µg/mL and the MIC (A. baumannii IHMA 2031524, Greece 2019, MDR, read-out: MIC) was over 16 µg/mL. For the same molecule, the MIC (A. baumannii IHMA 2035089, Serbia 2019, MDR, read-out: MIC) was over 16 µg/mL, the MIC (A. baumannii IHMA 2038976, Hungary 2019, MDR, read-out: MIC) was over 16 µg/mL and the MIC (A. baumannii IHMA 2051503, Serbia 2019, MDR, read-out: MIC) was over 16 µg/mL. For the same molecule, the MIC (A. baumannii IHMA 2065587, France 2019, Non-MDR, read-out: MIC) was at most 0.06 µg/mL, the MIC (A. baumannii IHMA 2129256, Qatar 2019, Non-MDR, read-out: MIC) was at most 0.06 µg/mL and the MIC (A. baumannii IHMA 2154584, Israel 2020, MDR, read-out: MIC) was over 16 µg/mL. The MIC (A. baumannii IHMA 2155340, Kenya 2020, MDR, read-out: MIC) was over 16 µg/mL, the MIC (A. baumannii IHMA 2156634, Turkey 2020, MDR, read-out: MIC) was over 16 µg/mL and the MIC (A. baumannii IHMA 2156709, Turkey 2020, MDR, read-out: MIC) was over 16 µg/mL. The MIC (A. baumannii IHMA 2177232, Lithuania 2020, MDR, read-out: MIC) was over 16 µg/mL, the MIC (A. baumannii IHMA 2177489, Lithuania 2020, MDR, read-out: MIC) was over 16 µg/mL and the MIC (A. baumannii IHMA 2178574, Ukraine 2020, Non-MDR, read-out: MIC) was at most 0.06 µg/mL. The MIC (A. baumannii IHMA 2180142, Malaysia 2020, MDR, read-out: MIC) was over 16 µg/mL, the MIC (A. baumannii IHMA 2181370, Morocco 2020, MDR, read-out: MIC) was over 16 µg/mL and the MIC (A. baumannii IHMA 2183729, Argentina 2020, MDR, read-out: MIC) was over 16 µg/mL. It also gave an MIC (A. baumannii IHMA 2193375, Venezuela 2020, MDR, read-out: MIC) of over 16 µg/mL, an MIC (A. baumannii IHMA 2193485, Venezuela 2020, Non-MDR, read-out: MIC) of at most 0.06 µg/mL and an MIC (A. baumannii IHMA 2193607, Venezuela 2020, MDR, read-out: MIC) of over 16 µg/mL. The MIC (A. baumannii IHMA 2195460, Italy 2020, MDR, read-out: MIC) was over 16 µg/mL, the MIC (A. baumannii IHMA 2196914, South Africa 2020, MDR, read-out: MIC) was over 16 µg/mL and the MIC (A. baumannii IHMA 2196959, South Africa 2020, MDR, read-out: MIC) was over 16 µg/mL. It also gave an MIC (A. baumannii IHMA 2203763, Spain 2020, MDR, read-out: MIC) of over 16 µg/mL, an MIC (A. baumannii IHMA 2205144, Korea, South 2020, MDR, read-out: MIC) of over 16 µg/mL and an MIC (A. baumannii IHMA 2206459, Taiwan 2020, MDR, read-out: MIC) of over 16 µg/mL. It also gave an MIC (A. baumannii IHMA 2206507, Taiwan 2020, Non-MDR, read-out: MIC) of at most 0.06 µg/mL, an MIC (A. baumannii IHMA 2216586, Taiwan 2020, MDR, read-out: MIC) of over 16 µg/mL and an MIC (A. baumannii IHMA 2224017, Panama 2020, MDR, read-out: MIC) of over 16 µg/mL. For the same molecule, the MIC (A. baumannii IHMA 2231797, Greece 2020, MDR, read-out: MIC) was over 16 µg/mL, the MIC (A. baumannii IHMA 2233099, Guatemala 2020, MDR, read-out: MIC) was over 16 µg/mL and the MIC (A. baumannii IHMA 2233430, Kazakhstan 2020, MDR, read-out: MIC) was over 16 µg/mL. For the same molecule, the MIC (A. baumannii IHMA 2238964, Thailand 2020, MDR, read-out: MIC) was over 16 µg/mL, the MIC (A. baumannii IHMA 2261047, Belgium 2020, MDR, read-out: MIC) was over 16 µg/mL and the MIC (A. baumannii IHMA 2274234, South Africa 2020, MDR, read-out: MIC) was over 16 µg/mL. For the same molecule, the MIC (A. baumannii IHMA 2274364, South Africa 2020, MDR, read-out: MIC) was over 16 µg/mL, the MIC (A. baumannii IHMA 2275751, Jordan 2020, MDR, read-out: MIC) was over 16 µg/mL and the MIC (A. baumannii IHMA 2316205, United States 2020, MDR, read-out: MIC) was over 16 µg/mL. The MIC (MDR n = 50, read-out: MAX (maximum MIC; all strains inhibited)) was over 16 µg/mL, the MIC50 (MDR n = 50) was over 16 µg/mL and the MIC90 (MDR n = 50) was over 16 µg/mL. For the same molecule, the MIC (MDR n = 50, read-out: MIN (minimum MIC)) was over 16 µg/mL, the MIC (all isolates n = 100, read-out: MAX (maximum MIC; all strains inhibited)) was over 16 µg/mL and the MIC50 (all isolates n = 100) was 2 µg/mL (≈ 6.04 µM). The MIC90 (all isolates n = 100) was over 16 µg/mL, the MIC (all isolates n = 100, read-out: MIN (minimum MIC)) was at most 0.06 µg/mL and the MIC (non-MDR n = 50, read-out: MAX (maximum MIC)) was 2 µg/mL (≈ 6.04 µM). For the same molecule, the MIC (non-MDR n = 50, read-out: MIN (minimum MIC)) was at most 0.06 µg/mL, the “Percentage I” value (MDR n = 50) was 0% and the “Percentage R” value (MDR n = 50) was 100%. The “Percentage S” value (MDR n = 50) was 0%, the “Percentage I” value (non-MDR n = 50) was 2% and the “Percentage R” value (non-MDR n = 50) was 0%. The “Percentage S” value (non-MDR n = 50) was 98%.
